Species on record: Rattus norvegicus
Experiment: Open TG-GATES - Regimen: Single
Format: toxicity, organism-based, Sprague-Dawley
Set-up: regimen Single, gender Male, age 6 weeks
Conditions: in vivo, po, route gavage; for Bas / Eos / Fbg / Lym / Mono / RBC / Ret / WBC: tissue Blood; for KIDNEY_L / KIDNEY_R / KIDNEY_TOTAL: tissue Kidney; for ALP / CRE / DBIL / IP / K / LDH / Na / PL / RALB / TBIL / TG / TP / gamma-GTP / GLC: tissue Plasma
[1] = 0 mg/kg, 3 h, dose level Control
[2] = 0 mg/kg, 6 h, dose level Control
[3] = 0 mg/kg, 9 h, dose level Control
[4] = 0 mg/kg, 24 h, dose level Control

C=C[C@H]1C[N@@]2CC[C@H]1C[C@@H]2[C@@H](O)c1ccnc2ccc(OC)cc12 [QUINIDINE]
TERMINAL_BW [1]: 212.2 g
Bas [1]: 0%
Eos [1]: 0.8%
Fbg [1]: 313.6 mg/dL
Lym [1]: 78.2%
Mono [1]: 1.8%
RBC [1]: 615 x10_4/ul
Ret [1]: 7.3%
WBC [1]: 86.7 x10_2/uL
KIDNEY_L [1]: 0.9 g
KIDNEY_R [1]: 1 g
KIDNEY_TOTAL [1]: 1.9 g
ALP [1]: 1497.8 IU/L
CRE [1]: 0.2 mg/dL
DBIL [1]: 0 mg/dL
IP [1]: 8.8 mg/dL
K [1]: 3.9 meq/L
LDH [1]: 153 IU/L
Na [1]: 143.8 meq/L
PL [1]: 136 mg/dL
RALB [1]: 3 g/dL
TBIL [1]: 0.018 mg/dL
TG [1]: 60.6 mg/dL
TP [1]: 5.4 g/dL
gamma-GTP [1]: 1.8 IU/L
TERMINAL_BW [2]: 213.3 g
Bas [2]: 0%
Eos [2]: 0.6%
Fbg [2]: 318.2 mg/dL
Lym [2]: 81.4%
Mono [2]: 2.2%
RBC [2]: 641 x10_4/ul
Ret [2]: 7%
WBC [2]: 100 x10_2/uL
KIDNEY_L [2]: 1 g
KIDNEY_R [2]: 1 g
KIDNEY_TOTAL [2]: 1.9 g
ALP [2]: 1503.8 IU/L
CRE [2]: 0.2 mg/dL
DBIL [2]: 0 mg/dL
IP [2]: 9.3 mg/dL
K [2]: 4.2 meq/L
LDH [2]: 187 IU/L
Na [2]: 143 meq/L
PL [2]: 134.8 mg/dL
RALB [2]: 3.1 g/dL
TBIL [2]: 0.018 mg/dL
TG [2]: 73.6 mg/dL
TP [2]: 5.4 g/dL
gamma-GTP [2]: 1.2 IU/L
TERMINAL_BW [3]: 212.8 g
Bas [3]: 0%
Eos [3]: 0.4%
Fbg [3]: 288.2 mg/dL
Lym [3]: 79.4%
Mono [3]: 2%
RBC [3]: 614.8 x10_4/ul
Ret [3]: 6.9%
WBC [3]: 84.8 x10_2/uL
KIDNEY_L [3]: 1 g
KIDNEY_R [3]: 1 g
KIDNEY_TOTAL [3]: 1.9 g
ALP [3]: 1297.8 IU/L
CRE [3]: 0.2 mg/dL
DBIL [3]: 0 mg/dL
GLC [3]: 174.2 mg/dL
IP [3]: 9.6 mg/dL
K [3]: 4.4 meq/L
LDH [3]: 136.6 IU/L
Na [3]: 143.8 meq/L
PL [3]: 131.6 mg/dL
RALB [3]: 3 g/dL
TBIL [3]: 0.022 mg/dL
TG [3]: 66 mg/dL
TP [3]: 5.5 g/dL
gamma-GTP [3]: 1.6 IU/L
TERMINAL_BW [4]: 227.4 g
Bas [4]: 0%
Eos [4]: 0.8%
Fbg [4]: 298.2 mg/dL
Lym [4]: 78.6%
Mono [4]: 1.8%
RBC [4]: 618.4 x10_4/ul
Ret [4]: 6.9%
WBC [4]: 90.9 x10_2/uL
KIDNEY_L [4]: 1 g
KIDNEY_R [4]: 1 g
KIDNEY_TOTAL [4]: 2 g
ALP [4]: 1610.6 IU/L
CRE [4]: 0.1 mg/dL
DBIL [4]: 0 mg/dL
IP [4]: 7.9 mg/dL
K [4]: 4.3 meq/L
LDH [4]: 202.2 IU/L
Na [4]: 141.6 meq/L
PL [4]: 149.8 mg/dL
RALB [4]: 3 g/dL
TBIL [4]: 0.008 mg/dL
TP [4]: 5.7 g/dL
gamma-GTP [4]: 1.6 IU/L
TERMINAL_BW (20 mg/kg, 3 h, dose level Low): 218.9 g
Bas (20 mg/kg, 3 h, dose level Low): 0%
Eos (20 mg/kg, 3 h, dose level Low): 0.2%
Fbg (20 mg/kg, 3 h, dose level Low): 293.2 mg/dL
Lym (20 mg/kg, 3 h, dose level Low): 81%
Mono (20 mg/kg, 3 h, dose level Low): 2%
RBC (20 mg/kg, 3 h, dose level Low): 600.6 x10_4/ul
Ret (20 mg/kg, 3 h, dose level Low): 7.5%
WBC (20 mg/kg, 3 h, dose level Low): 73.2 x10_2/uL
KIDNEY_L (20 mg/kg, 3 h, dose level Low): 1 g
KIDNEY_R (20 mg/kg, 3 h, dose level Low): 1 g
KIDNEY_TOTAL (20 mg/kg, 3 h, dose level Low): 2 g
ALP (20 mg/kg, 3 h, dose level Low): 1446.4 IU/L
CRE (20 mg/kg, 3 h, dose level Low): 0.2 mg/dL
DBIL (20 mg/kg, 3 h, dose level Low): 0 mg/dL
GLC (20 mg/kg, 3 h, dose level Low): 178.4 mg/dL
IP (20 mg/kg, 3 h, dose level Low): 8.7 mg/dL
K (20 mg/kg, 3 h, dose level Low): 3.7 meq/L
Na (20 mg/kg, 3 h, dose level Low): 142 meq/L
PL (20 mg/kg, 3 h, dose level Low): 145 mg/dL
RALB (20 mg/kg, 3 h, dose level Low): 3 g/dL
TBIL (20 mg/kg, 3 h, dose level Low): 0.022 mg/dL
TG (20 mg/kg, 3 h, dose level Low): 68.2 mg/dL
TP (20 mg/kg, 3 h, dose level Low): 5.4 g/dL
gamma-GTP (20 mg/kg, 3 h, dose level Low): 1.8 IU/L
TERMINAL_BW (20 mg/kg, 6 h, dose level Low): 214.6 g
Bas (20 mg/kg, 6 h, dose level Low): 0%
Eos (20 mg/kg, 6 h, dose level Low): 0.8%
Fbg (20 mg/kg, 6 h, dose level Low): 294.2 mg/dL
Lym (20 mg/kg, 6 h, dose level Low): 78%
Mono (20 mg/kg, 6 h, dose level Low): 2.6%
RBC (20 mg/kg, 6 h, dose level Low): 617.4 x10_4/ul
Ret (20 mg/kg, 6 h, dose level Low): 7.3%
WBC (20 mg/kg, 6 h, dose level Low): 80 x10_2/uL
KIDNEY_L (20 mg/kg, 6 h, dose level Low): 0.9 g
KIDNEY_R (20 mg/kg, 6 h, dose level Low): 1 g
KIDNEY_TOTAL (20 mg/kg, 6 h, dose level Low): 1.9 g
ALP (20 mg/kg, 6 h, dose level Low): 1616.2 IU/L
CRE (20 mg/kg, 6 h, dose level Low): 0.2 mg/dL
DBIL (20 mg/kg, 6 h, dose level Low): 0.004 mg/dL
IP (20 mg/kg, 6 h, dose level Low): 9.4 mg/dL
K (20 mg/kg, 6 h, dose level Low): 4 meq/L
Na (20 mg/kg, 6 h, dose level Low): 142.8 meq/L
PL (20 mg/kg, 6 h, dose level Low): 140.6 mg/dL
RALB (20 mg/kg, 6 h, dose level Low): 3 g/dL
TBIL (20 mg/kg, 6 h, dose level Low): 0.034 mg/dL
TG (20 mg/kg, 6 h, dose level Low): 55.6 mg/dL
TP (20 mg/kg, 6 h, dose level Low): 5.4 g/dL
gamma-GTP (20 mg/kg, 6 h, dose level Low): 1.2 IU/L
TERMINAL_BW (20 mg/kg, 9 h, dose level Low): 213.3 g
Bas (20 mg/kg, 9 h, dose level Low): 0%
Eos (20 mg/kg, 9 h, dose level Low): 0.8%
Fbg (20 mg/kg, 9 h, dose level Low): 302.6 mg/dL
Lym (20 mg/kg, 9 h, dose level Low): 77.2%
Mono (20 mg/kg, 9 h, dose level Low): 2.2%
RBC (20 mg/kg, 9 h, dose level Low): 642 x10_4/ul
Ret (20 mg/kg, 9 h, dose level Low): 6.9%
WBC (20 mg/kg, 9 h, dose level Low): 88 x10_2/uL
KIDNEY_L (20 mg/kg, 9 h, dose level Low): 1 g
KIDNEY_R (20 mg/kg, 9 h, dose level Low): 1 g
KIDNEY_TOTAL (20 mg/kg, 9 h, dose level Low): 2 g
ALP (20 mg/kg, 9 h, dose level Low): 1487 IU/L
CRE (20 mg/kg, 9 h, dose level Low): 0.2 mg/dL
DBIL (20 mg/kg, 9 h, dose level Low): 0 mg/dL
IP (20 mg/kg, 9 h, dose level Low): 9.3 mg/dL
K (20 mg/kg, 9 h, dose level Low): 4.4 meq/L
LDH (20 mg/kg, 9 h, dose level Low): 133.8 IU/L
Na (20 mg/kg, 9 h, dose level Low): 143.8 meq/L
PL (20 mg/kg, 9 h, dose level Low): 136.8 mg/dL
RALB (20 mg/kg, 9 h, dose level Low): 3 g/dL
TBIL (20 mg/kg, 9 h, dose level Low): 0.02 mg/dL
TG (20 mg/kg, 9 h, dose level Low): 83.4 mg/dL
TP (20 mg/kg, 9 h, dose level Low): 5.5 g/dL
gamma-GTP (20 mg/kg, 9 h, dose level Low): 1.6 IU/L
TERMINAL_BW (20 mg/kg, 24 h, dose level Low): 228.7 g
Bas (20 mg/kg, 24 h, dose level Low): 0%
Eos (20 mg/kg, 24 h, dose level Low): 1%
Fbg (20 mg/kg, 24 h, dose level Low): 321.4 mg/dL
Lym (20 mg/kg, 24 h, dose level Low): 82.4%
Mono (20 mg/kg, 24 h, dose level Low): 2.4%
RBC (20 mg/kg, 24 h, dose level Low): 632.8 x10_4/ul
Ret (20 mg/kg, 24 h, dose level Low): 6.7%
WBC (20 mg/kg, 24 h, dose level Low): 97.6 x10_2/uL
KIDNEY_L (20 mg/kg, 24 h, dose level Low): 1 g
KIDNEY_R (20 mg/kg, 24 h, dose level Low): 1 g
KIDNEY_TOTAL (20 mg/kg, 24 h, dose level Low): 1.9 g
ALP (20 mg/kg, 24 h, dose level Low): 1563 IU/L
CRE (20 mg/kg, 24 h, dose level Low): 0.1 mg/dL
DBIL (20 mg/kg, 24 h, dose level Low): 0.002 mg/dL
IP (20 mg/kg, 24 h, dose level Low): 7.7 mg/dL
K (20 mg/kg, 24 h, dose level Low): 4 meq/L
Na (20 mg/kg, 24 h, dose level Low): 140.4 meq/L
RALB (20 mg/kg, 24 h, dose level Low): 3.1 g/dL
TBIL (20 mg/kg, 24 h, dose level Low): 0 mg/dL
TG (20 mg/kg, 24 h, dose level Low): 147.8 mg/dL
TP (20 mg/kg, 24 h, dose level Low): 5.8 g/dL
gamma-GTP (20 mg/kg, 24 h, dose level Low): 1.8 IU/L
TERMINAL_BW (60 mg/kg, 3 h, dose level Middle): 222.4 g

From ChEMBL document CHEMBL3885861, “Open TG-GATES”
